One substance from US20140206624A1, “TREATMENT OF LEUKEMIA” (THE BRIGHAM AND WOMEN'S HOSPITAL, INC., priority 2011, published 2014) can be followed below.

The assay deals with leukemia-initiating cell (LIC). Description: Limited dilution assay of LIC function in tertiary recipients. The assay is classed as in vivo, mouse. An excerpt:
Using the same experimental set-up described in panels G leukemia BM cells Saline (MLL-AF9; FoxO1/3/4^+/+, panel H) versus pI-pC (MLL-AF9; FoxO1/3/4^Δ/Δ, panel I) were by isolated by flow cytometry and subsequently transplanted into tertiary recipients at various cell numbers: 300 (n=6), 3,000 (n=6), 30,000 (n=4) and 300,000 (n=4). Animals were then monitored weekly and euthanized upon presentation of external (moribund) and internal (e.g. WBC) signs of AML. The LIC frequencies of each condition are located in the bottom left corner (H. LICfreq^+/+=1:20,688 and I. LICfreq^Δ/Δ=1: 269,310).
As described in FIG. 5, MLL-AF9-induced AML was generated in a FoxO1/3/4^floxed; Mx1-Cre+ genetic background that was subsequently transplanted into secondary mice. Fourteen days post-transplant, secondary recipients were administered with saline or pI-pC and monitored for the development of AML (FIG. 5). BM cells recovered from saline (Ctrl) and pI-pC treated mice that succumbed to AML were then transplanted into tertiary recipients and evaluated for the development of AML (p=0.0061; n=8).
Log-Rank (Mantel-Cox) test was used to determine p values for all Kaplan-Meier survival curve analyses. Unpaired, two-tailed student's t tests were used for all analyses comparing two experimental groups. Poisson statistics was used to determine the leukemia-initiating cell frequency in vivo in FIGS. 9H and 9I as well as in vitro in FIGS. 4E and 4F.
To test whether loss of FoxO1/3/4 also diminished LIC function, a limited dilution assay was performed for leukemia cells immediately following FoxO1/3/4 deletion. Briefly, equal numbers of leukemic BM cells were recovered from FoxO1/3/4^floxed; Mx1-Cre+; MLL-AF9 mice seven days following pI-pC or saline treatment. Recipient mice were then injected with 300, 3,000, 30,000 or 300,000 cells of each condition. Ninety days following transplantation, 100%, 75% and 17% of mice that received 300,000, 30,000 or 3,000 cells, respectively, from saline-treated FoxO1/3/4^floxed; Mx1-Cre+; MLL-AF9 succumbed to AML corresponding to a LIC frequency of 1:20,688 (FIG. 9H). In contrast, 75% of mice transplanted with 300,000 pI-pC-treated FoxO1/3/4^floxed; Mx1-Cre+; MLL-AF9 donor cells developed AML whereas 100% of mice from each other cell dose were alive at day 90.

As for polyinosine-polycytidyline [pI-pC], under “300,000 donor cells, pI-pC vs saline-treated”, the “increase in median survival” value was roughly 2 fold. The substance further yielded a median survival (300,000 pI-pC-treated donor cells, n=4) of 82 days. Moreover, the “mice that developed AML” value (300,000 pI-pC-treated donor cells, ninety days following transplantation) worked out at 75%. For the same substance, for the setting “each other cell dose (300, 3,000, 30,000) of pI-pC-treated donor cells”, the “mice alive at day 90” value was found to be 100%. In addition, the “LIC frequency lower than the control group” value (pI-pC vs saline) came out at 13 fold. The “latency in recipients of donor cells from mice of FIG. 9F” value (pI-pC vs saline-treated donors (FIG. 10B)) is on record as “extended latency”.
